Two molecules from patent US20090047655A1, “Method Of Screening Candidate Drug” (priority 2004, published 2009) can be followed below.

A short description of one data set: in vivo. The note with it: mouse, in vivo. An excerpt:
(§1) As for the chimeric mice, chimeric mice produced by Hiroshima Prefectural Institute of Industrial Science and Technology or PhoenixBio Co., Ltd. were used. To be more specific, mice in which human hepatocytes were engrafted and proliferated in the mouse liver were produced by transplanting human hepatocytes (IVT079, purchased from In Vitro Technology Inc., or BD51, purchased from BD Gentest Inc.) into the spleen of uPA(+/+)/SCID mice, which are mice having hepatic impairment and immunodeficiency. Mice in which 70% or more of the mouse liver had been replaced with human hepatocytes (high-replacement chimeric mice) and low-replacement chimeric mice in which although human hepatocytes had been transplanted, the replacement ratio was almost 0%, or untransplanted mice (mice with no replacement) were used (3 mice in each group). Further, as a control, 3 uPA(−/−)/SCID mice were used.
(§2) The concentration for administration of tolbutamide which is a standard drug for CYP2C9 was […]., and 4.175 mg of tolbutamide was weighed out and suspended in 1 ml of a CMC liquid in an agate mortar, and a 4.175 mg/ml suspension which is 5 times as high as the concentration for administration was prepared.
(§3) To the high-replacement chimeric mice, low-replacement chimeric mice (or mice with no replacement) and uPA(−/−)/SCID mice (3 mice in each group), 5 compounds were simultaneously administered orally by gavage or intravenously. The blood was collected from the tail vein of each mouse in an amount of 15 μl each at 0.25 (only intravenous administration), 0.5, 1, 2, 4 (only oral administration) and 8 hours after administration. Then, the blood was centrifuged at 3,500 rpm for 5 minutes, and the serum (supernatant) was collected and stored in a freezer at −30° C.
(§4) The serum samples were transported to Sumika Chemical Analysis Service, Ltd. while keeping it in dry ice, and subjected to measurement by LC-MS/MS according to the following procedure.
(§5) With regard to a liquid chromatograph, SIL-HTC and LC-10A series (Shimadzu Corporation) were used, and as a column, Synergi 4μ Polar-RP 80A, 150 mm (length)×2.00 mm (inner diameter), 4 μm (Phenomenex Inc.) was used at 30° C. As a mobile phase, methanol/a 10 mmol/l ammonium acetate solution/acetic acid (700/300/2, v/v/v) was used, and a flow rate was set at 0.2 ml/min. An injection volume was set at 2 μl, a measurement time was set at 10 min, and the temperature of an autosampler was set at 4° C. As a mass spectrometer, Tandem Mass Spectrometer API 4000 (Applied Biosystems/MDS SCIEX Inc.) was used. As API interface, Turbo V (ESI probe) was used, and as Ionization mode, Positive ion detection mode was used.
To Eppendorf tubes in which 5 μl of samples to be measured (serum) were contained, 100 μl of methanol was added, and 10 μl of 1 μg/ml of I.S. standard solution was added thereto, and then, the mixtures were thoroughly mixed by an ultrasonic treatment and a vortex mixer. The resulting mixtures were centrifuged (15,000 rpm, 5 min, room temperature), and the resulting supernatants were subjected to centrifugal filtration (10,000 rpm, 2 min, room temperature) with a filter, and the resulting filtrates were used as injection samples for LC-MS/MS.
(§6) The determined values of the drug concentration in the serum were calculated from the peak area ratio obtained by the LC-MS/MS measurement of the samples for addition calibration curve. […] From the graphs, the peak serum concentration (Cmax), half-life (t1/2), area under the curve (AUC), bioavailability and clearance were analyzed, and pharmacokinetics in human was predicted.

The conditions of data set [1]: mouse, in vivo.
Source text: as §1, §2, §3, §4, §5
To Eppendorf tubes in which 5 μl of samples to be measured (serum) were contained, 100 μl of methanol was added, and 10 μl of 1 μg/ml of I.S. standard solution was added thereto, and then, the mixtures were thoroughly mixed by an ultrasonic treatment and a vortex mixer. […]
as §6

The test system of the next data set is CYP2D6. Put plainly: in vivo. To be noted: uPA(+/+)/SCID, mouse, po. As to the method: (§7) As for the chimeric mice, chimeric mice produced in PhoenixBio Co., Ltd. were used. To be more specific, 3 mice in which human hepatocytes were engrafted and proliferated in the mouse liver were produced by transplanting human hepatocytes (BD51, purchased from BD Gentist Inc.) into the spleen of uPA(+/+)/SCID mice, which are mice having hepatic impairment and immunodeficiency.
(§8) Paroxetine was dissolved in Milli-Q water (using a bath-type ultrasonic device) and prepared to give a final concentration of 6 mg/ml. The prepared drug was intraperitoneally administered to the mice at a dose of 5 μl/g b.w. (30 mg/kg b.w./day).
(§9) To the high-replacement chimeric mice, paroxetine was intraperitoneally administered for 3 days. Then, in the same manner as in Example 1, 5 compounds were simultaneously administered orally by gavage, the blood was collected over time, and the serum was stored.
(§10) The determination and analysis of drugs in the serum were carried out in the same manner as in Example 1.
(§11) The determined values of the drug concentration in the serum were calculated from the peak area ratio obtained by the LC-MS/MS measurement of the samples for addition calibration curve. […] From the graphs, Cmax, t1/2 and AUC were analyzed.

The target of the next data set is CYP1A2 (Homo sapiens, UniProt P05177). Nature of the data set: Inhibition of metabolic activity by paroxetine in high-replacement chimeric mouse (marker caffeine). Format: in vivo. The note with it: paroxetine 30 mg/kg b.w./day i.p. for 3 days, donor BD51. As to the method: as §7, §8, §9, §10, §11
Another data set addresses T1, CYP2C19 (Homo sapiens, UniProt P33261).
T1 construct: human hepatocytes were engrafted and proliferated in the mouse liver; host or cells: human donor hepatocytes BD51 engrafted in the liver of uPA(+/+)/SCID mice (high-replacement chimeric mice, PhoenixBio)
Put plainly: Inhibition of metabolic activity by paroxetine in high-replacement chimeric mouse (marker omeprazole). Format: in vivo. The note with it: paroxetine 30 mg/kg b.w./day i.p. for 3 days, donor BD51. As to the method: as §7, §8, §9, §10, §11

The target of the next data set is T2, CYP3A4 (Homo sapiens, UniProt P08684).
T2 construct: human hepatocytes were engrafted and proliferated in the mouse liver; host or cells: human donor hepatocytes BD51 engrafted in the liver of uPA(+/+)/SCID mice (high-replacement chimeric mice, PhoenixBio)
Put plainly: Inhibition of metabolic activity by paroxetine in high-replacement chimeric mouse (marker erythromycin). The note with it: paroxetine 30 mg/kg b.w./day i.p. for 3 days, donor BD51. Format: in vivo. Here is the method: as §7, §8, §9, §10, §11

Where two headings read alike, the source gives them in different places.

T2 sequence (P08684 whole entry): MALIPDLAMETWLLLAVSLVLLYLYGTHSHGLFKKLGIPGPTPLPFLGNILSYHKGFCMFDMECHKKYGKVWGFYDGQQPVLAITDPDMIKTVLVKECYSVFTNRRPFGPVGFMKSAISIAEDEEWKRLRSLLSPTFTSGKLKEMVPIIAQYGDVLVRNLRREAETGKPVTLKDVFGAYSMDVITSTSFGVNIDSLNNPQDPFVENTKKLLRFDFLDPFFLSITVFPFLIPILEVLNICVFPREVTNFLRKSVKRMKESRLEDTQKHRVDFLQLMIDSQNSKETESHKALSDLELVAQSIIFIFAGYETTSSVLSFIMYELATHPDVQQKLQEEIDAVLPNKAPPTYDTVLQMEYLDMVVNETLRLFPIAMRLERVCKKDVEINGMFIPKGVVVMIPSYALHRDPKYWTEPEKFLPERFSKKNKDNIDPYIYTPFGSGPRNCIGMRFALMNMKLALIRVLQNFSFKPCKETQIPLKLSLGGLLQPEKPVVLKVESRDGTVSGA
Sequence of CYP1A2 (P05177 whole entry): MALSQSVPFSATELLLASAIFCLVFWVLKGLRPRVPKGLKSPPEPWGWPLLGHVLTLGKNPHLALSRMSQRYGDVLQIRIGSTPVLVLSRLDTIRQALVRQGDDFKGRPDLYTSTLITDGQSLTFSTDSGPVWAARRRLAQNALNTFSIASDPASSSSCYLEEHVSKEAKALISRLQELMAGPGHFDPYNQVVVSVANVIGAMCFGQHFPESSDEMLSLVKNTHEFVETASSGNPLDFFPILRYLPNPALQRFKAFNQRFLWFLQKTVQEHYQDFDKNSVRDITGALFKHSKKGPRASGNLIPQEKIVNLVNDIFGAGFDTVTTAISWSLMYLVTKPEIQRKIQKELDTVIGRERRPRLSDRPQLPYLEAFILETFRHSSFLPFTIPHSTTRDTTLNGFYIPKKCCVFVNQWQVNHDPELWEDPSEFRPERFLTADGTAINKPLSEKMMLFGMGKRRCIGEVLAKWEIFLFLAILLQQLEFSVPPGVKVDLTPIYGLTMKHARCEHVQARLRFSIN
T1 sequence (P33261 whole entry): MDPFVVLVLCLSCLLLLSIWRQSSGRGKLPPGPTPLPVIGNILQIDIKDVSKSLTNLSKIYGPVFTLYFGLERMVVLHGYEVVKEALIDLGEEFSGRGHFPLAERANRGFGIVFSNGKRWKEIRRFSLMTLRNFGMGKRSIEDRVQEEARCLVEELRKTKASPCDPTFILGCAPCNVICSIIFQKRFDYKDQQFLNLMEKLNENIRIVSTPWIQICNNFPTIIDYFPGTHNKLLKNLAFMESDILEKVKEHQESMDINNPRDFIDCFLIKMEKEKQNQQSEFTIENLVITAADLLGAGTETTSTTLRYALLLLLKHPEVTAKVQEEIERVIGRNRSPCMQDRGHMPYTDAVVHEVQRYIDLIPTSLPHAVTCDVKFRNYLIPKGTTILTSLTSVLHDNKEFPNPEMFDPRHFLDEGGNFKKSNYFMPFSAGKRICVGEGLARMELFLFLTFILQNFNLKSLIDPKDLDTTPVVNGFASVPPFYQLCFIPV

As to `CCCCNC(=O)NS(=O)(=O)c1ccc(C)cc1` [Tolbutamide, tolbutamide], the “AUC in high-replacement chimeric mice compared with low-replacement chimeric mice” value (in “in vivo”; in data set [1]) was “significantly lower” in each case. Moreover, the area under the curve (AUC) in the data set “in vivo” (uPA(+/+)/SCID, iv) was found to be 20600 ng·h/mL; in the data set “in vivo” (uPA(+/+)/SCID, iv, AUC), 16800 ng·h/mL; in “in vivo” (uPA(−/−)/SCID, iv, AUC), 11500 ng·h/mL; in the data set “in vivo” (uPA(−/−)/SCID, po, AUC), 95300 ng·h/mL; with CYP2D6, 115000 ng·h/mL. In addition, the “t 1/2 Distribution phase” value in the data set “in vivo” (uPA(+/+)/SCID, iv) is reported as 0.865^#3 hr. The half-life is 0.982 h in the data set “in vivo” (uPA(+/+)/SCID, iv, t 1/2 Distribution phase); 4.3 h in the data set “in vivo” (uPA(+/+)/SCID, po, t 1/2 Elimination phase); 2.84 h in the data set “in vivo” (uPA(−/−)/SCID, iv, t 1/2 Distribution phase); 2.56 h in “in vivo” (uPA(−/−)/SCID, iv, t 1/2 Elimination phase); 3.31 h in the data set with CYP2D6 (t 1/2 Distribution phase). In addition, in “in vivo” (uPA(−/−)/SCID, po, Bioavailability), the bioavailability came out at 82.9%. For the same molecule, in the data set “in vivo” (uPA(−/−)/SCID, po, Cmax), the peak concentration (Cmax) worked out at 16900 ng/mL.
Take `Fc1ccc([C@@H]2CCNC[C@H]2COc2ccc3c(c2)OCO3)cc1` [paroxetine, Paroxetine]: the “inhibition of the metabolic activity of CYP1A2” value against CYP1A2 is recorded as “inhibition”. Besides, the “inhibition of the metabolic activity of CYP2C19” value against CYP2C19 is “inhibition”. Also, the “inhibition of the metabolic activity of CYP3A4” value on CYP3A4 was “inhibition”.
